What all share (assay type): functional
For experiment [1], the system named is Candida albicans. The experiment can be described thus: Antifungal activity against Candida albicans after 24 hrs by two-fold broth microdilution assay.
The test system of experiment [2] is Candida tropicalis. Put plainly: Antifungal activity against Candida tropicalis after 24 hrs by two-fold broth microdilution assay. (In general: In broth dilution the organism is exposed to a series of concentrations in liquid medium.)
Experiment [3] relates to Aspergillus fumigatus. The experiment can be described thus: Antifungal activity against Aspergillus fumigatus after 24 hrs by two-fold broth microdilution assay.
The subject of experiment [4] is Candida albicans. The experiment can be described thus: Antifungal activity against Candida albicans ATCC 90023 after 24 hrs by two-fold broth microdilution assay. The conditions noted are these: ATCC 90023, 24 h.
In experiment [5] the test system is Candida parapsilosis. The experiment can be described thus: Antifungal activity against Candida parapsilosis ATCC 22019 after 24 hrs by two-fold broth microdilution assay. The conditions noted are these: Lodderomyces parapsilosis, ATCC 22019, 24 h.
Experiment [6] concerns Candida albicans. Put plainly: Fungicidal activity against Candida albicans incubated for 24 hrs followed by plating onto tryptic soy agar medium and measured after 24 hrs by broth microdilution method.
Experiment [7] deals with Candida tropicalis. Put plainly: Fungicidal activity against Candida tropicalis incubated for 24 hrs followed by plating onto tryptic soy agar medium and measured after 24 hrs by broth microdilution method.
Experiment [8] concerns Candida parapsilosis. Put plainly: Fungicidal activity against Candida parapsilosis ATCC 22019 incubated for 24 hrs followed by plating onto tryptic soy agar medium and measured after 24 hrs by broth microdilution method. The conditions noted are these: Lodderomyces parapsilosis, ATCC 22019, 24 h.
For experiment [9], the system named is Candida albicans. Put plainly: Ratio of MFC to MIC for Candida albicans.
Experiment [10] relates to Candida tropicalis. The experiment can be described thus: Ratio of MFC to MIC for Candida tropicalis.
Experiment [11] has as its system Candida parapsilosis. The experiment can be described thus: Ratio of MFC to MIC for Candida parapsilosis ATCC 22019.
In experiment [12] the test system is Staphylococcus aureus. Put plainly: Antibacterial activity against Staphylococcus aureus after 24 hrs by micro broth dilution method.
Experiment [13] relates to Staphylococcus aureus. The experiment can be described thus: Antibacterial activity against methicillin-resistant Staphylococcus aureus after 24 hrs by micro broth dilution method.
Experiment [14] has as its system Enterococcus faecalis. The experiment can be described thus: Antibacterial activity against Enterococcus faecalis after 24 hrs by micro broth dilution method.
In experiment [15] the test system is Staphylococcus aureus. The experiment can be described thus: Antibacterial activity against Staphylococcus aureus ATCC 25923 after 24 hrs by micro broth dilution method. The conditions noted are these: ATCC 25923, 24 h.
Experiment [16] relates to Staphylococcus aureus. The experiment can be described thus: Antibacterial activity against Staphylococcus aureus ATCC 29213 after 24 hrs by micro broth dilution method. The conditions noted are these: ATCC 29213, 24 h.
Experiment [17] concerns Klebsiella pneumoniae. The experiment can be described thus: Antibacterial activity against Klebsiella pneumoniae after 24 hrs by micro broth dilution method.
Experiment [18] deals with Escherichia coli. Put plainly: Antibacterial activity against Escherichia coli after 24 hrs by micro broth dilution method.
The test system of experiment [19] is Acinetobacter baumannii. Put plainly: Antibacterial activity against Acinetobacter baumannii after 24 hrs by micro broth dilution method.
For experiment [20], the system named is Pseudomonas aeruginosa. Put plainly: Antibacterial activity against Pseudomonas aeruginosa after 24 hrs by micro broth dilution method.
For experiment [21], the system named is Pseudomonas aeruginosa. The experiment can be described thus: Antibacterial activity against Pseudomonas aeruginosa ATCC 27853 after 24 hrs by micro broth dilution method. The conditions noted are these: ATCC 27853, 24 h.
Experiment [22] has as its system Escherichia coli. Put plainly: Antibacterial activity against Escherichia coli ATCC 25922 after 24 hrs by micro broth dilution method. The conditions noted are these: ATCC 25922, 24 h.
In experiment [23] the test system is Candida albicans. Put plainly: Synergistic antifungal activity against Candida albicans after 18 hrs in presence of fluconazole by checkerboard assay.
Experiment [24] concerns Candida tropicalis. Put plainly: Synergistic antifungal activity against Candida tropicalis after 18 hrs in presence of fluconazole by checkerboard assay.
Experiment [25] has as its system Aspergillus fumigatus. The experiment can be described thus: Synergistic antifungal activity against Aspergillus fumigatus after 18 hrs in presence of fluconazole by checkerboard assay.
For experiment [26], the system named is Candida albicans. The experiment can be described thus: Synergistic antifungal activity against Candida albicans assessed as FIC index after 18 hrs in presence of fluconazole by checkerboard assay.
The test system of experiment [27] is Candida tropicalis. The experiment can be described thus: Synergistic antifungal activity against Candida tropicalis assessed as FIC index after 18 hrs in presence of fluconazole by checkerboard assay.
In experiment [28] the test system is Aspergillus fumigatus. Put plainly: Synergistic antifungal activity against Aspergillus fumigatus assessed as FIC index after 18 hrs in presence of fluconazole by checkerboard assay.

Experimental findings from ChEMBL document CHEMBL4270534, “Novel carbazole-triazole conjugates as DNA-targeting membrane active potentiators against clinical isolated fungi” (Eur J Med Chem, 2018) are described below.

In brackets after ≈: the same amount, converted by molar mass.

`OC(Cn1cncn1)(Cn1c2ccc(Br)cc2c2cc(Br)ccc21)c1ccc(Cl)c(Cl)c1` (configuration not stated): the MIC (usually the smallest concentration in the dilution series that meets the test's criterion for growth inhibition) was 4 µg/mL (≈ 6.72 µM) in [1]; 8 µg/mL (≈ 13.4 µM) in experiment [2]; 32 µg/mL (≈ 53.8 µM) in experiment [3]; 32 µg/mL (≈ 53.8 µM) in experiment [4]; 16 µg/mL (≈ 26.9 µM) in experiment [5]; 64 µg/mL (≈ 108 µM) in [12]. The MIC in experiment [13] was determined as 8 µg/mL (≈ 13.4 µM); in experiment [14], 16 µg/mL (≈ 26.9 µM); in experiment [15] it was 16 µg/mL (≈ 26.9 µM); in experiment [16], 32 µg/mL (≈ 53.8 µM); in experiment [17], 128 µg/mL (≈ 215 µM); in experiment [18], 64 µg/mL (≈ 108 µM). Moreover, the MIC in experiment [19] was 128 µg/mL (≈ 215 µM); in [20] it was 64 µg/mL (≈ 108 µM); in experiment [21] it was 32 µg/mL (≈ 53.8 µM); in [22], 32 µg/mL (≈ 53.8 µM). Moreover, the values for the MFC in [6], in experiment [7] and in experiment [8] were 16 µg/mL (≈ 26.9 µM), 8 µg/mL (≈ 13.4 µM) and 32 µg/mL (≈ 53.8 µM), respectively. The Ratio in experiment [9] is recorded as 4; in experiment [10] it was 1; in experiment [11], 2.

Turning to `OC(Cn1cncn1)(Cn1c2ccccc2c2cc(Br)ccc21)c1ccc(F)cc1F` (configuration not stated), the MIC in experiment [1] is 8 µg/mL (≈ 16.6 µM); in experiment [2], 4 µg/mL (≈ 8.28 µM); in experiment [3], 64 µg/mL (≈ 132 µM); in [4], 32 µg/mL (≈ 66.2 µM); in experiment [5] it was 8 µg/mL (≈ 16.6 µM); in experiment [23], 2 µg/mL. The MIC in [24] was determined as 4 µg/mL; in experiment [25] it was 16 µg/mL; in experiment [12], 32 µg/mL (≈ 66.2 µM); in experiment [13], 16 µg/mL (≈ 33.1 µM); in experiment [14] it was 32 µg/mL (≈ 66.2 µM); in [15], 16 µg/mL (≈ 33.1 µM). Further, the MIC in [16] amounted to 16 µg/mL (≈ 33.1 µM); in experiment [17] it was 128 µg/mL (≈ 265 µM); in experiment [18], 32 µg/mL (≈ 66.2 µM); in [19], 64 µg/mL (≈ 132 µM); in experiment [20], 64 µg/mL (≈ 132 µM); in [21], 128 µg/mL (≈ 265 µM). In [22], this molecule had an MIC of 32 µg/mL (≈ 66.2 µM). Also, the MFC (as a rule, the smallest concentration meeting the test's criterion for killing the fungus) was determined as 16 µg/mL (≈ 33.1 µM) in [6], 32 µg/mL (≈ 66.2 µM) in [7] and 8 µg/mL (≈ 16.6 µM) in experiment [8]. Also, the figures for the Ratio in experiment [9], in experiment [10] and in experiment [11] were 2, 8 and 1, respectively. Also, the “fractional inhibitory concentration index (FICI)” value is reported as 0.75 in experiment [26], 1.5 in [27] and 0.32 in experiment [28].

As for `CC(C)(C)c1ccc2c(c1)c1cc(C(C)(C)C)ccc1n2CC(O)(Cn1cncn1)c1ccc(F)cc1F` (configuration not stated), the MIC in experiment [1] turned out to be 64 µg/mL (≈ 124 µM); in experiment [2] it was 64 µg/mL (≈ 124 µM); in experiment [3] it was 256 µg/mL (≈ 496 µM); in experiment [4] it was 128 µg/mL (≈ 248 µM); in [5], 64 µg/mL (≈ 124 µM); in experiment [12], 256 µg/mL (≈ 496 µM). In addition, the MIC stood at 64 µg/mL (≈ 124 µM) in experiment [13]; 128 µg/mL (≈ 248 µM) in [14]; 32 µg/mL (≈ 61.9 µM) in experiment [15]; 256 µg/mL (≈ 496 µM) in experiment [16]; 32 µg/mL (≈ 61.9 µM) in [17]; 128 µg/mL (≈ 248 µM) in experiment [18]. Besides, the MIC came to 256 µg/mL (≈ 496 µM) in [19], 128 µg/mL (≈ 248 µM) in experiment [20], 64 µg/mL (≈ 124 µM) in experiment [21] and 128 µg/mL (≈ 248 µM) in [22].

On to `Cc1ccc(C(O)(Cn2cncn2)Cn2c3ccc(Br)cc3c3cc(Br)ccc32)cc1` (configuration not stated), for which the MIC in experiment [1] was determined as 64 µg/mL (≈ 118 µM); in [2], 32 µg/mL (≈ 59.2 µM); in experiment [3] it was 64 µg/mL (≈ 118 µM); in experiment [4], 128 µg/mL (≈ 237 µM); in experiment [5] it was 32 µg/mL (≈ 59.2 µM); in experiment [12] it was 256 µg/mL (≈ 474 µM). In addition, the MIC is 128 µg/mL (≈ 237 µM) in experiment [13]; 64 µg/mL (≈ 118 µM) in experiment [14]; 128 µg/mL (≈ 237 µM) in experiment [15]; 256 µg/mL (≈ 474 µM) in [16]; 256 µg/mL (≈ 474 µM) in experiment [17]; 256 µg/mL (≈ 474 µM) in experiment [18]. Further, the MIC amounted to 256 µg/mL (≈ 474 µM) in [19], 256 µg/mL (≈ 474 µM) in experiment [20], 64 µg/mL (≈ 118 µM) in [21] and 16 µg/mL (≈ 29.6 µM) in [22].
